The source of these data is US12558357B2, “Tetrahydroquinazoline derivatives as selective cytotoxic agents” (Merck Sharp & Dohme LLC, priority 2020, dated 2026).

Molecules are shown by their SMILES.

The test concerns PBMCs infected with VSV-G pseudotyped HIV virus (VSV-G/pNLG1-P2A-ΔEnv). The test is described as follows: cells. It is filed as cell-based, human. The note with it: Homo sapiens, PBMC, read-out: EC50 (HIV-TACK cell kill activity).
By EC50 is commonly meant the concentration at which the effect is half-maximal. Regarding `CC(F)(F)[C@@]1(C#CC2CC2)NC(=O)Nc2cc(Cn3cnccc3=O)ccc21` [Example 55, (S)-4-(cyclopropylethynyl)-4-(1,1-difluoroethyl)-7-((6-oxopyrimidin-1(6H)-yl)methyl)-3,4-dihydroquinazolin-2(1H)-one], the EC50 is 96 nM.
Next, `O=C1Nc2cc(Cn3cnccc3=O)c(Cl)cc2[C@@](C#CC2CC2)(C(F)(F)F)N1` [Example 56, (S)-6-chloro-4-(cyclopropylethynyl)-7-((6-oxopyrimidin-1(6H)-yl)methyl)-4-(trifluoromethyl)-3,4-dihydroquinazolin-2(1H)-one]: 35 nM; `N#Cc1ncn(Cc2ccc3c(c2)NC(=O)N[C@]3(C#CC2CC2)C(F)(F)F)c(=O)c1N` [Example 57, (S)-5-amino-1-((4-(cyclopropylethynyl)-2-oxo-4-(trifluoromethyl)-1,2,3,4-tetrahydroquinazolin-7-yl)methyl)-6-oxo-1,6-dihydropyrimidine-4-carbonitrile]: 127 nM.
Next, `Nc1nccn(Cc2cc3c(cc2Cl)[C@@](C#CC2CC2)(C(F)(F)F)NC(=O)N3)c1=O` [Example 58, (S)-7-((3-amino-2-oxopyrazin-1(2H)-yl)methyl)-6-chloro-4-(cyclopropylethynyl)-4-(trifluoromethyl)-3,4-dihydroquinazolin-2(1H)-one]: 41 nM; `Cc1cn(Cc2ccc3c(c2)NC(=O)N[C@]3(C#CC2CC2)C(F)(F)F)c(=O)c(N)n1` [Example 59, (S)-7-((3-amino-5-methyl-2-oxopyrazin-1(2H)-yl)methyl)-4-(cyclopropylethynyl)-4-(trifluoromethyl)-3,4-dihydroquinazolin-2(1H)-one]: 78 nM; `Cc1nc(N)c(=O)n(Cc2ccc3c(c2)NC(=O)N[C@]3(C#CC2CC2)C(F)(F)F)c1C` [Example 60, (S)-7-((3-amino-5,6-dimethyl-2-oxopyrazin-1(2H)-yl)methyl)-4-(cyclopropylethynyl)-4-(trifluoromethyl)-3,4-dihydroquinazolin-2(1H)-one]: 156 nM.
As to `COCc1cc(=O)n(Cc2cc3c(cc2Cl)[C@@](C#CC2CC2)(C(F)(F)F)NC(=O)N3)cn1` [Example 61, (S)-6-chloro-4-(cyclopropylethynyl)-7-((4-(methoxymethyl)-6-oxopyrimidin-1(6H)-yl)methyl)-4-(trifluoromethyl)-3,4-dihydroquinazolin-2(1H)-one], the EC50 turned out to be 38 nM.
`O=C1Nc2cc(Cn3cnc(C(F)F)cc3=O)c(Cl)cc2[C@@](C#CC2CC2)(C(F)(F)F)N1` [Example 62, (S)-6-chloro-4-(cyclopropylethynyl)-7-((4-(difluoromethyl)-6-oxopyrimidin-1(6H)-yl)methyl)-4-(trifluoromethyl)-3,4-dihydroquinazolin-2(1H)-one]: the EC50 was found to be 41 nM.
The value for `O=C1Nc2cc(Cn3cnc(CO)cc3=O)ccc2[C@@](C#CC2CC2)(C(F)(F)F)N1` [Example 63, (S)-4-(cyclopropylethynyl)-7-((4-(hydroxymethyl)-6-oxopyrimidin-1(6H)-yl)methyl)-4-(trifluoromethyl)-3,4-dihydroquinazolin-2(1H)-one] was 145 nM; that for `Cc1cc(=O)n(Cc2ccc3c(c2)NC(=O)N[C@]3(C#CC2CC2)C(C)(F)F)cn1` [Example 64, (S)-4-(cyclopropylethynyl)-4-(1,1-difluoroethyl)-7-((4-methyl-6-oxopyrimidin-1(6H)-yl)methyl)-3,4-dihydroquinazolin-2(1H)-one] was 93 nM.
As to `O=C1Nc2cc(Cn3cnc(CO)cc3=O)c(F)cc2[C@@](C#CC2CC2)(C(F)(F)F)N1` [Example 65, (S)-4-(cyclopropylethynyl)-6-fluoro-7-((4-(hydroxymethyl)-6-oxopyrimidin-1(6H)-yl)methyl)-4-(trifluoromethyl)-3,4-dihydroquinazolin-2(1H)-one], the EC50 amounted to 45 nM.
The value for `O=C1Nc2cc(Cn3cncc(CO)c3=O)c(F)cc2[C@@](C#CC2CC2)(C(F)(F)F)N1` [Example 66, (S)-4-(cyclopropylethynyl)-6-fluoro-7-((5-(hydroxymethyl)-6-oxopyrimidin-1(6H)-yl)methyl)-4-(trifluoromethyl)-3,4-dihydroquinazolin-2(1H)-one] was 188 nM; that for `CC(F)(F)[C@@]1(C#CC2CC2)NC(=O)Nc2cc(Cn3ccnc(N)c3=O)c(F)cc21` [Example 67, (S)-7-((3-amino-2-oxopyrazin-1(2H)-yl)methyl)-4-(cyclopropylethynyl)-4-(1,1-difluoroethyl)-6-fluoro-3,4-dihydroquinazolin-2(1H)-one] was 12 nM; that for `Nc1nc(Cl)cn(Cc2ccc3c(c2)NC(=O)N[C@]3(C#CC2CC2)C(F)(F)F)c1=O` [Example 68, (S)-7-((3-amino-5-chloro-2-oxopyrazin-1(2H)-yl)methyl)-4-(cyclopropylethynyl)-4-(trifluoromethyl)-3,4-dihydroquinazolin-2(1H)-one] was 71 nM.
Next, `N#Cc1ncn(Cc2cc3c(cc2F)[C@@](C#CC2CC2)(C(F)(F)F)NC(=O)N3)c(=O)c1N` [Example 69, (S)-5-amino-1-((4-(cyclopropylethynyl)-6-fluoro-2-oxo-4-(trifluoromethyl)-1,2,3,4-tetrahydroquinazolin-7-yl)methyl)-6-oxo-1,6-dihydropyrimidine-4-carbonitrile]: 29 nM; `O=c1ccncn1Cc1ccc2c(c1)NC(=S)N[C@]2(C#CC1CC1)C(F)(F)F` [Example 70, (S)-3-((4-(cyclopropylethynyl)-2-thioxo-4-(trifluoromethyl)-1,2,3,4-tetrahydroquinazolin-7-yl)methyl)pyrimidin-4(3H)-one]: 93 nM; `Nc1nccn(Cc2ccc3c(c2)NC(=S)N[C@]3(C#CC2CC2)C(F)(F)F)c1=O` [Example 71, (S)-3-amino-1-((4-(cyclopropylethynyl)-2-thioxo-4-(trifluoromethyl)-1,2,3,4-tetrahydroquinazolin-7-yl)methyl)pyrazin-2(1H)-one]: 41 nM.
Next, `Nc1c(C(F)(F)F)ccn(Cc2ccc3c(c2)NC(=O)N[C@]3(C#CC2CC2)C(F)(F)F)c1=O` [Example 72, (S)-7-((3-amino-2-oxo-4-(trifluoromethyl)pyridin-1(2H)-yl)methyl)-4-(cyclopropylethynyl)-4-(trifluoromethyl)-3,4-dihydroquinazolin-2(1H)-one]: 193 nM; `CN1C(=O)Nc2cc(Cn3cnccc3=O)ccc2[C@@]1(C#CC1CC1)C(F)(F)F` [Example 73, (S)-4-(cyclopropylethynyl)-3-methyl-7-((6-oxopyrimidin-1(6H)-yl)methyl)-4-(trifluoromethyl)-3,4-dihydroquinazolin-2(1H)-one]: 275 nM; `CCN1C(=O)Nc2cc(Cn3cnccc3=O)ccc2[C@@]1(C#CC1CC1)C(F)(F)F` [Example 74, (S)-4-(cyclopropylethynyl)-3-ethyl-7-((6-oxopyrimidin-1(6H)-yl)methyl)-4-(trifluoromethyl)-3,4-dihydroquinazolin-2(1H)-one]: 263 nM.
Consider `Cc1cc2c(cc1Cn1cnccc1=O)NC(=O)N[C@]2(C#CC1CC1)C(F)(F)F` [Example 80, (S)-4-(cyclopropylethynyl)-6-methyl-7-((6-oxopyrimidin-1(6H)-yl)methyl)-4-(trifluoromethyl)-3,4-dihydroquinazolin-2(1H)-one], for which the EC50 came to 57 nM.
